Common to all, as to assay type: cell-based
For experiment [1], the system named is NCI-H524 human small cell lung cancer cells. In words: H524 assay: inhibition of cell proliferation (CellTiter Glo). The settings on record: 2 h treatment, washout, additional 70 h incubation. A digest of the protocol: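 Proliferation was measured by CellTiter Glo 70 h after a washout that followed a 2 h pulse of NDC. Doses were an 11-point, two-fold dilution series from 1 uM. IC50 was fitted with a four-parameter model to luminescence-based % inhibition relative to control cells.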
(In general: ATP-based viability assays read luminescence as a measure of living cells.)

Experiment [2] addresses T1, human somatostatin receptor subtype 2 (Homo sapiens, UniProt P30874).
T1 construct: expressed in transfected cells
In words: Functional assay for SSTR2 agonists (HTRF cAMP). The settings on record: CHO-K1 cells stably expressing human SST2; NKH477-stimulated cAMP; 20 min at 37 C; read-out: hSST2 cAMP Avg EC50. The method, boiled down: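 Agonist activity read as fall in intracellular cAMP: HTRF 665/620 nm ratio regressed to a cAMP standard curve, EC50 fitted. Stable human SSTR2 CHO-K1 cells exposed 20 min at 37 °C to compound, final concentrations typically 0-10,000 nM.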

In another experiment the target is T2, SST2 (Homo sapiens, UniProt P30874).
T2 construct: host or cells: PathHunter CHO-K1 SST2 cells
The experiment in a line: PathHunter CHO-K1 SST2 Internalization Assay. As to conditions: PathHunter CHO-K1 SST2 cells; 90 min at 37 C; luminescence; read-out: Internalization EC50. The method, boiled down: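 Four-parameter nonlinear fits of background-corrected luminescence (duplicate means) gave IC50s. NDCs were serially diluted 1:3 over 11 points from a 10 uM final top concentration and incubated 90 min at 37 C with human SST2 CHO-K1 cells plated 48 h earlier at 2500/well. Beta-Glo read-out developed 60 min at RT.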

As usually defined, the EC50 is the concentration needed to bring the measured effect to its halfway point.

*1 amine or outer side, *2 acyl side, *3 side chain or, on linkers, in order; H or OH if unused. Where a SMILES comes first, the peptide text is derived from it. [ ]: non-standard residue; d: D form. The star is where a group is joined. X3 = Cc1cc(F)cc(-c2cnc(NCCNC(=O)CCOCCOCCOCCOCCC(=O)*)c(-c3nc4ccc(Cl)cc4[nH]3)c2N2CCC(N)CC2)c1; X1 = Cc1cc(F)cc(-c2cnc(*)c(-c3nc4ccc(Cl)cc4[nH]3)c2N2CCC(N)CC2)c1; Dolaproine = CO[C@@H]([C@@H]1CCCN1)[C@@H](C)C(=O)O; Dil = CC[C@H](C)[C@H](NC)[C@@H](CC(=O)O)OC; PABC = O=C(OCc1ccc(N[*:1])cc1)[*:2]; X2 = C[C@@H](N*)[C@@H](O)c1ccccc1; Cit = NC(=O)NCCC[C@H](N)C(=O)O; PEG4 = NCCOCCOCCOCCOCCC(=O)O; NMeV = CN[C@H](C(=O)O)C(C)C; PEG1 = NCCOCCC(=O)O; βAla = NCCC(=O)O

T1 sequence (P30874 whole entry): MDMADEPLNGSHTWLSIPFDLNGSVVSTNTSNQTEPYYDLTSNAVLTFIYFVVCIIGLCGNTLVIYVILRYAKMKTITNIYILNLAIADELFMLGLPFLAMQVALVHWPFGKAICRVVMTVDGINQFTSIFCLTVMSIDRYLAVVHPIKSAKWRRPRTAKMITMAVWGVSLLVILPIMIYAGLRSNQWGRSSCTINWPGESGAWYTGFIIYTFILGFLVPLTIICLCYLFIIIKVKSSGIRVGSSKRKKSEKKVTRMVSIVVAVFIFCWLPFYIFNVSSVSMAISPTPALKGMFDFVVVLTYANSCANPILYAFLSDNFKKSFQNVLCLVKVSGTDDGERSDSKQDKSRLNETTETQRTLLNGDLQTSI
T2 sequence (P30874 whole entry): as above

`CC[C@H](C)[C@@H]([C@@H](CC(=O)N1CCC[C@H]1[C@H](OC)[C@@H](C)C(=O)N[C@H](C)[C@@H](O)c1ccccc1)OC)N(C)C(=O)[C@@H](NC(=O)[C@H](C(C)C)N(C)C(=O)OCc1ccc(NC(=O)[C@H](CCCNC(N)=O)NC(=O)[C@@H](NC(=O)c2cc(NCCOCCC(=O)N(C)CC(=O)NCCNc3ncc(-c4cc(C)cc(F)c4)c(N4CCC(N)CC4)c3-c3nc4ccc(Cl)cc4[nH]3)cc(C(=O)NCC(=O)O)c2)C(C)C)cc1)C(C)C` [Compound 162]: the EC50 in experiment [1] is 60 nM; in experiment [2], 0.27 nM; at SST2 it was 4.7 nM.

Regarding `CC[C@H](C)[C@@H]([C@@H](CC(=O)N1CCC[C@H]1[C@H](OC)[C@@H](C)C(=O)N[C@H](C)[C@@H](O)c1ccccc1)OC)N(C)C(=O)[C@@H](NC(=O)[C@H](C(C)C)N(C)C(=O)OCc1ccc(NC(=O)[C@H](CCCNC(N)=O)NC(=O)[C@@H](NC(=O)c2cc(NCCCCCC(=O)N(C)CC(=O)NCCNc3ncc(-c4cc(C)cc(F)c4)c(N4CCC(N)CC4)c3-c3nc4ccc(F)cc4[nH]3)cc(C(=O)NCC(=O)O)c2)C(C)C)cc1)C(C)C` [Compound 168], the results for the EC50 (in experiment [1]; in experiment [2]; at SST2) were 34 nM, 0.17 nM and 5.8 nM, respectively.

For the compound `CC[C@H](C)[C@@H]([C@@H](CC(=O)N1CCC[C@H]1[C@H](OC)[C@@H](C)C(=O)N[C@H](C)[C@@H](O)c1ccccc1)OC)N(C)C(=O)[C@@H](NC(=O)[C@H](C(C)C)N(C)C(=O)OCc1ccc(NC(=O)[C@H](C)NC(=O)[C@@H](NC(=O)CCOCCC(=O)NCCNc2ncc(-c3cc(C)cc(F)c3)c(N3CC[C@H]4NCCO[C@@H]4C3)c2-c2nc3ccc(Cl)cc3[nH]2)C(C)C)c(O[C@@H]2O[C@H](C(=O)O)[C@@H](O)[C@H](O)[C@H]2O)c1)C(C)C` [Compound 113], the EC50 was 2000 nM in experiment [1], 110 nM in experiment [2] and 1300 nM on SST2.

With `CC[C@H](C)[C@@H]([C@@H](CC(=O)N1CCC[C@H]1[C@H](OC)[C@@H](C)C(=O)N[C@H](C)[C@@H](O)c1ccccc1)OC)N(C)C(=O)[C@@H](NC(=O)[C@H](C(C)C)N(C)C(=O)OCc1ccc(NC(=O)[C@H](CCCNC(N)=O)NC(=O)[C@@H](NC(=O)CCOCCC(=O)NCCNc2ncc(-c3cc(C)cc(F)c3)c(N3CCC(N)CC3)c2-c2nc3ccc(Cl)cc3[nH]2)C(C)C)c(O[C@@H]2O[C@H](C(=O)NCCC(=O)N[C@@H](CCCCNC(=O)CCCCc3ccc(I)cc3)C(=O)O)[C@@H](O)[C@H](O)[C@H]2O)c1)C(C)C` [Compound 55], the half-maximal effective concentration (EC50) in experiment [1] came to 11 nM; in experiment [2], 0.25 nM; on SST2 it was 2 nM.

As to `CC[C@H](C)[C@@H]([C@@H](CC(=O)N1CCC[C@H]1[C@H](OC)[C@@H](C)C(=O)N[C@H](C)[C@@H](O)c1ccccc1)OC)N(C)C(=O)[C@@H](NC(=O)[C@H](C(C)C)N(C)C(=O)OCc1ccc(NC(=O)[C@H](CCCNC(N)=O)NC(=O)[C@@H](NC(=O)[C@H](CCC(=O)O)NC(=O)CCOCCC(=O)NCCNc2ncc(-c3cc(C)cc(F)c3)c(N3CCC(N)CC3)c2-c2nc3ccc(Cl)cc3[nH]2)C(C)C)c(C(F)(F)F)c1)C(C)C` [Compound 6], the 50% effective concentration (EC50) was determined as 7300 nM in experiment [1], 0.21 nM in experiment [2] and 3.5 nM at SST2.

For `CC[C@H](C)[C@@H]([C@@H](CC(=O)N1CCC[C@H]1[C@H](OC)[C@@H](C)C(=O)N[C@H](C)[C@@H](O)c1ccccc1)OC)N(C)C(=O)[C@@H](NC(=O)[C@H](C(C)C)N(C)C(=O)OCc1ccc(NC(=O)[C@H](CCCNC(N)=O)NC(=O)[C@@H](NC(=O)c2ccc(NC(=O)CCOCCOCCOCCOCCC(=O)NCCNc3ncc(-c4cc(C)cc(F)c4)c(N4CCC(N)CC4)c3-c3nc4ccc(Cl)cc4[nH]3)cc2O[C@@H]2OC(C(=O)O)[C@@H](O)[C@H](O)[C@H]2O)C(C)C)cc1)C(C)C` (stereo partly drawn) [Compound 183], the EC50 in experiment [1] came out at 1000 nM; in experiment [2], 0.074 nM; at SST2, 3.1 nM.

For `CC[C@H](C)[C@@H]([C@@H](CC(=O)N1CCC[C@H]1[C@H](OC)[C@@H](C)C(=O)N[C@H](C)[C@@H](O)c1ccccc1)OC)N(C)C(=O)[C@@H](NC(=O)[C@H](C(C)C)N(C)C(=O)OCc1ccc(NC(=O)[C@H](CCCNC(N)=O)NC(=O)[C@@H](NC(=O)CN(C)C(=O)CCOCCC(=O)NCCNc2ncc(-c3cc(C)cc(F)c3)c(N3CCC(N)CC3)c2-c2nc3ccc(Cl)cc3[nH]2)C(C)C)cc1C(=O)NCC(=O)O)C(C)C` [Compound 71], the EC50 in experiment [1] turned out to be 100 nM; in experiment [2], 0.14 nM; on SST2 it was 7.5 nM.

Regarding `CC[C@H](C)[C@@H]([C@@H](CC(=O)N1CCC[C@H]1[C@H](OC)[C@@H](C)C(=O)N[C@H](C)[C@@H](O)c1ccccc1)OC)N(C)C(=O)[C@@H](NC(=O)[C@H](C(C)C)N(C)C(=O)OCc1ccc(NC(=O)[C@H](CCCNC(N)=O)NC(=O)[C@@H](NC(=O)CCOCCOCCC(=O)NCCNc2ncc(-c3cc(C)cc(F)c3)c(N3CCC(N)CC3)c2-c2nc3ccc(Cl)cc3[nH]2)C(C)C)cc1C(=O)NCCCCCCCCCCC(=O)O)C(C)C` [Compound 75], the EC50 came out at 440 nM in experiment [1], 0.21 nM in experiment [2] and 2.4 nM on SST2.

In the case of `CC[C@H](C)[C@@H]([C@@H](CC(=O)N1CCC[C@H]1[C@H](OC)[C@@H](C)C(=O)N[C@H](C)[C@@H](O)c1ccccc1)OC)N(C)C(=O)[C@@H](NC(=O)[C@H](C(C)C)N(C)C(=O)OCc1ccc(NC(=O)[C@H](CCCNC(N)=O)NC(=O)[C@@H](NC(=O)CCOCCOCCOCCOCCNC(=O)CCNc2ncc(-c3cc(C)cc(F)c3)c(N3CCC(N)CC3)c2-c2nc3ccc(Cl)cc3[nH]2)C(C)C)cc1)C(C)C` [Compound 196] ({X1-βAla-PEG4}-V[Cit][PABC][NMeV]V[Dil][Dolaproine]-X2), the EC50 in experiment [1] stood at 28 nM; in experiment [2] it was 0.29 nM; on SST2, 8.6 nM.

On to `CC[C@H](C)[C@@H]([C@@H](CC(=O)N1CCC[C@H]1[C@H](OC)[C@@H](C)C(=O)N[C@H](C)[C@@H](O)c1ccccc1)OC)N(C)C(=O)[C@@H](NC(=O)[C@H](C(C)C)N(C)C(=O)OCc1ccc(NC(=O)[C@H](CCCNC(N)=O)NC(=O)[C@@H](NC(=O)CCOCCNC(=O)[C@H](CCC(=O)O)NC(=O)[C@H](CCC(=O)O)NC(=O)CCOCCOCCOCCOCCC(=O)NCCNc2ncc(-c3cc(C)cc(F)c3)c(N3CCC(N)CC3)c2-c2nc3ccc(Cl)cc3[nH]2)C(C)C)cc1)C(C)C` [Compound 190] (X3-EE[PEG1]V[Cit][PABC][NMeV]V[Dil][Dolaproine]-X2), for which the values for the EC50 (in experiment [1]; in experiment [2]; on SST2) were 3200 nM, 0.33 nM and 14 nM, respectively.

Turning to `CC[C@H](C)[C@@H]([C@@H](CC(=O)N1CCC[C@H]1[C@H](OC)[C@@H](C)C(=O)N[C@H](C)[C@@H](O)c1ccccc1)OC)N(C)C(=O)[C@@H](NC(=O)[C@H](C(C)C)N(C)C(=O)OCc1ccc(NC(=O)[C@H](CCCNC(N)=O)NC(=O)[C@@H](NC(=O)C[C@@H](N)C(=O)NCCOCCC(=O)NCCNc2ncc(-c3cc(C)cc(F)c3)c(N3CCC(N)CC3)c2-c2nc3ccc(Cl)cc3[nH]2)C(C)C)c(O[C@@H]2O[C@H](C(=O)O)[C@@H](O)[C@H](O)[C@H]2O)c1)C(C)C` [Compound 92], the EC50 in experiment [1] worked out at 680 nM; in experiment [2], 0.2 nM; on SST2, 2.5 nM.

Turning to `CC[C@H](C)[C@@H]([C@@H](CC(=O)N1CCC[C@H]1[C@H](OC)[C@@H](C)C(=O)N[C@H](C)[C@@H](O)c1ccccc1)OC)N(C)C(=O)[C@@H](NC(=O)[C@H](C(C)C)N(C)C(=O)OCc1ccc(NC(=O)[C@H](CCCNC(N)=O)NC(=O)[C@@H](NC(=O)C[C@@H](N)C(=O)NCCOCCC(=O)NCCNc2ncc(-c3cc(C)cc(F)c3)c(N3CCC(N)CC3)c2-c2nc3ccc(Cl)cc3[nH]2)C(C)C)c(O[C@@H]2O[C@H](C(=O)NCC(=O)O)[C@@H](O)[C@H](O)[C@H]2O)c1)C(C)C` [Compound 35], the EC50 in experiment [1] stood at 16 nM; in experiment [2], 0.1 nM; on SST2 it was 5 nM.

As to `CC[C@H](C)[C@@H]([C@@H](CC(=O)N1CCC[C@H]1[C@H](OC)[C@@H](C)C(=O)N[C@H](C)[C@@H](O)c1ccccc1)OC)N(C)C(=O)[C@@H](NC(=O)[C@H](C(C)C)N(C)C(=O)OCc1ccc(NC(=O)[C@H](CCCNC(N)=O)NC(=O)[C@@H](NC(=O)CCOCCC(=O)NCCNc2ncc(-c3cc(C)cc(F)c3)c(N3CCC(N)CC3)c2-c2nc3ccc(Cl)cc3[nH]2)C(C)C)c(O[C@@H]2O[C@H](C(=O)N[C@@H](CCCCNC(=O)CCCCc3ccc(I)cc3)C(=O)O)[C@@H](O)[C@H](O)[C@H]2O)c1)C(C)C` [Compound 54], the EC50 in experiment [1] turned out to be 20 nM; in experiment [2] it was 0.26 nM; at SST2, 2.1 nM.

Turning to `CC[C@H](C)[C@@H]([C@@H](CC(=O)N1CCC[C@H]1[C@H](OC)[C@@H](C)C(=O)N[C@H](C)[C@@H](O)c1ccccc1)OC)N(C)C(=O)[C@@H](NC(=O)[C@H](C(C)C)N(C)C(=O)OCc1ccc(NC(=O)[C@H](C)NC(=O)[C@@H](NC(=O)CCOCCC(=O)NCCNc2ncc(-c3cc(C)cc(F)c3)c(N3CCC(N)CC3)c2-c2nc3ccc(Cl)cc3[nH]2)C(C)C)c(OCC(=O)O)c1)C(C)C` [Compound 13], the EC50 in experiment [1] turned out to be 11 nM; in experiment [2], 0.16 nM; on SST2, 3.2 nM.

(Values after patent publication US20260007758A1, “SO[…]-2 RECEPTOR (SST2R) NON-PEPTIDE DRUG CONJUGATES AND USES THEREOF” (Crinetics Pharmaceuticals, Inc., priority 2024, published 2026).)
